Assay results published in patent publication US20090148886A1, “METHODS OF IDENTIFYING COMPOUNDS THAT DECREASE INTRAOCULAR PRESSURE” (The Arizona Board of Regents on behalf of the University of …, priority 2007, published 2009).

Test system: C57BL/6 mice and Best2^+/+, Best2^+/−, Best2^−/− littermates
Experiment: IOP measurement by cannulation of the anterior chamber in control and drug-treated Best2 mice
Format: in vivo, mouse
Details: for Mean IOP: 10 μL of solution topically to each eye 2 hours before cannulation, mean ± SE
Procedure: IOP Measurements: IOP was measured in the mice by cannulation of the anterior chamber with Avertin® anesthesia (300 mg/kg injected intraperitoneally) as described in, e.g., Husain et al., Exp. Eye Res. 83:1453-1458, 2006; John et al., Invest. Ophthalmol. Vis. Sci. 38:249-253, 1997; Aihara et al., Invest. Ophthalmol. Vis. Sci. 44:5168-5173, 2003. In brief, the anterior chamber was cannulated with a borosilicate glass microneedle (1-mm outer diameter with a 50-μm inner diameter tip, beveled to 45°; Humagen, Charlottesville, Va.) filled with Hanks' balanced salt solution (HBSS) and connected to a pressure transducer (BLPR; World Precision Instruments, Sarasota, Fla.). The signal was amplified (Bridge8 amplifier; World Precision Instruments), converted from analog to digital (iWorx® model 108 converter; CB Sciences, Dover, N.H.), and recorded (LabScribe software ver. 1.6; CB Sciences, Dover, N.H.). IOP was recorded for a period of >90 seconds, and the IOP value determined from the average of each recording. […] All measurements were performed between 2 and 6 PM to avoid diurnal pressure variations. The apparatus was calibrated using a fluid reservoir the height of which could be adjusted to generate a series of known pressures. For experiments using timolol (0.5% solution; Bausch & Lomb, Tampa, Fla.) or brinzolamide (Azopt® 1% solution; Alcon, Fort Worth, Tex.), 10 μL of solution was administrated topically to each eye 2 hours before cannulation.

Structure (SMILES)	IOP after treatment compared with treated C57BL/6 or Best2^+/+ mice (Best2^+/+ (so in the source) and Best2^−/− mice, lower than in C57BL/6 or Best2^+/+ mice)	Mean IOP (Best2^+/+ mice) [mm Hg]	Mean IOP (Best2^+/− mice) [mm Hg]	Mean IOP (Best2^−/− mice) [mm Hg]	Mean IOP (C57BL/6 mice) [mm Hg]	Effect on IOP (in words) (all mice tested)	Effect on IOP (in words) (Best2^−/− mice)	Effect on IOP (in words) (C57BL/6 and Best2^+/+ mice, P<0.005)
CCN[C@H]1CN(CCCOC)S(=O)(=O)c2sc(S(N)(=O)=O)cc21 [Brinzolamide, brinzolamide]	approximately 1 mm Hg	10.08 ± 0.33	9.56 ± 0.37	9.34 ± 0.34	10.51 ± 0.51	effective in lowering IOP in all mice tested	–	–
CC(C)(C)NC[C@H](O)COc1nsnc1N1CCOCC1 [Timolol, timolol]	–	9.57 ± 0.22	9.48 ± 0.12	9.49 ± 0.18	10.53 ± 0.29	–	less effective in lowering IOP	lowered IOP significantly
